Data on 3 molecules can be found in patent publication US20020031818A1, “Modification of Mdm2 activity” (priority 2000, published 2002).

For assay [1], the system named is Mdm2. Put plainly: 35S pulse-chase half-life of Mdm2 forms in p53/Mdm2 double null cells. The following applies: lactacystin 25 μM. Format: cell-based, human.
Protocol: C. p53/Mdm2 double null cells were transfected with the wt or K1 forms of Mdm2 and 24 h later were subjected to pulse chase labeling with ^35S-methionine in the absence or presence of lactacystin (25 μM) as indicated in Figure. Proteins prepared at the indicated time-points were immunoprecipitated using monoclonal antibodies to Mdm2 followed by autoradiography.
p53/Mdm2 double null cells were transfected with wt or K1 forms of Mdm2 expression vectors (4 μg). ^35S-methionine (1 mCi) was added to the cell cultures 24 h after transfection for 5 hr (pulse) followed by chase (2 mM cold methionine) for the indicated time-points. Protein extracts (1 mg) were used for immunopurification of Mdm2 using mixture of monoclonal antibodies (2A-10/3 F1). Immunoprecipitated Mdm2 was washed, separated on 10% SDS-PAGE and analyzed by autoradiography.
In assay [2] the test system is Mdm2. Description: In vivo ubiquitination of Mdm2 in EJ cells (HA-Ub, Mdm2 immunoprecipitation). Format: cell-based, mouse. An excerpt: FIG. 14A-14E. A. In vitro ubiquitination of Mdm2 is inhibited by p19^ARF. GST-Mdm2 was subjected to an in vitro ubiquitination reaction using purified forms of E1, E2 and Ub-HA in the presence of ATP. Addition of bacculovirus-purified p19^ARF at the indicated concentrations blocked Mdm2 ubiquitination. Glutathione bead-coupled GST-Mdm2 in its ubiquitinated or non-ubiquitinated forms was washed and analyzed on immunoblots using antibodies to HA (upper panel). Middle panel depicts the level of Mdm2 expression and the lower panel, the level of p19^ARF added to the reaction. B. p19^ARF expression increases Mdm2 self-ubiquitination in EJ cells. EJ cells were transfected with the indicated plasmids. Cells were harvested 36 h later and proteins ([…]) were immunoprecipitated using Mdm2 antibodies (2A10). Immunoprecipitated material was washed and proteins loaded onto 10% SDS-PAGE, followed by immunoblot analysis with HA-antibodies to detect covalent HA-ubiquitin conjugation to Mdm2 (upper panel). Middle panel depicts level of immunoprecipitated Mdm2. Lower panel represents western analysis of p19^ARF expression levels. C. In vitro ubiquitination of Mdm2 in the presence of p19^ARF and protein extracts. […] The level of p53 immunoprecipitated was monitored in immunoblots using polyclonal antibodies to p53 (middle). […]

The subject of assay [3] is p53-mediated apoptosis. Description: Apoptosis assay (DNA fragmentation, flow cytometry) in Mdm2/p53 double null cells. Format: cell-based. As to conditions: co-expression with p53 in Mdm2/p53 double null cells. The procedure:
FIGS. 5A-5D. Mdm2 sumoylation or mutation on Lys446 increases p53 ubiquitination and degradation and decreases p53 ability to mediate apoptosis. […] WCE was immunoprecipitated using monoclonal p53 antibodies. […] B. Ubiquitinated Mdm2 is less efficient in targeting the ubiquitination of p53. Bacterially expressed Mdm2 ([…]) was subjected to in vitro ubiquitination (self ubiquitination) in the presence of E1 [45 ng], E2 UbcH5b [1.5 μg] and ubiquitin [3 μg; SIGMA] and […] in ubiquitination buffer for the 0, 2, or 3 h (to ensure efficient self-ubiquitination) as indicated in Figure. To monitor the degree of Mdm2's ability to target the ubiquitination of p53, equal amounts of the self-ubiquitinated Mdm2 were extensively washed with TBS/0.5% Triton X-100 before incubated with bacculovirus-expressed and purified form of HA-tagged p53 for 2 h in the presence of E1, E2 and ubiquitin. The degree of p53 ubiquitination was monitored via immunoblot analysis using antibodies to HA. C. […]
Mdm2/p53 double null cells were transfected with Mdm2 constructs (as indicated) and marker plasmid encoding Green Fluorescent Protein, pEGFP (1 μg). […] The percentage of cells to the left of the diploid G0/1 peak, characteristic of hypodiploid cells, was calculated as the percentage of apoptotic cells.
(In general: A flow cytometer gives signals particle by particle.)

Turning to `CC(=O)N[C@@H](CSC(=O)[C@]1([C@@H](O)C(C)C)NC(=O)[C@H](C)[C@@H]1O)C(=O)O` [lactacystin], the “effect on half life of K1 form of Mdm2” value in assay [1] (K1 expressing cells) is on record as “remained unchanged”. The “effect on half-life of p75 and p90 forms of Mdm2” value in assay [1] (wt Mdm2 transfected cells) was “prolonged the half-life of both p75 and p90”.
For the molecule `C[S+]([O-])c1ccc(-c2nc(-c3ccncc3)c(-c3ccc(F)cc3)[nH]2)cc1` (centres unmarked) [SB203580], the “p19ARF-mediated Mdm2 ubiquitination in inhibitor-treated cells” value in assay [2] (EJ cells with Flag-Mdm2, p19ARF, HA-Ub, PD 98059 50 μM, SB203580 10 and 100 μM, LY294002 50 μM, Herbimycin 1 μM) is listed as “capable of attenuating p19^ARF-mediated Mdm2 ubiquitination”. Also, the “increase in Mdm2 ubiquitination after UV treatment in inhibitor-pretreated cells” value in assay [2] (SB203580 10 μM or LY294002 50 μM, 2 h prior to harvest) is recorded as “attenuated”.
As for “K1: Mdm2 mutant with lysine 446 substituted for arginine”, the “decrease in p53-induced apoptosis (cell death) compared with wt Mdm2” value in assay [3] is reported as “greater decrease in degree of cell death”.
